As usually defined, the remaining activity is the activity still measured, relative to the control.

Experiment [1] concerns the target T1, PSMA-expressing LNCaP cells (Homo sapiens, UniProt Q04609).
T1 construct: PSMA-expressing LNCaP cells; endogenous in cells; host or cells: LNCaP
The experiment in a line: Binding competition assay against 3H-PSMA-617 on LNCaP cells. Particulars: for % remaining 3H-PSMA-617 @ 10 nM (mean) / % remaining 3H-PSMA-617 @ 100 nM (mean) / remaining activity at 0.01 µM / remaining activity at 0.1 µM: LNCaP cells, 10 nM 3H-PSMA-617, 2 h at 37° C., triplicates; for % remaining 3H-PSMA-617 @ 10 nM (mean) / remaining activity at 0.01 µM: competing non-radiolabeled compound 10 nM; for % remaining 3H-PSMA-617 @ 100 nM (mean) / remaining activity at 0.1 µM: competing non-radiolabeled compound 100 nM; for competition against 3H-PSMA-617 on PSMA-expressing LNCaP cells (in words): comparison between examples. In short, it runs like this: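 Compounds added to LNCaP cells in growth medium, 2 h at 37 °C, 5% CO2. After two ice-cold PBS washes, cells lysed in 0.3 M NaOH and bound radioactivity measured by liquid scintillation counting.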

Experiment [2] deals with VCap, C4-2, 22Rv1 and LnCap cells. The experiment in a line: Cell proliferation assay, summary statements over several cell lines. The class given is cell-based. The following applies: for antiproliferative activity on VCap, C4-2, 22Rv1 and LnCap cells (in words): 227Th-labelled compounds bearing the HOPO chelator Example A. The protocol: Inhibition of cell proliferation of Thorium-227 labeled PMSA SMOL ligands was tested different prostate cancer cell lines, namely 22Rv1, VCaP, C4-2 (all from ATCC, Manassas, Va., USA) and LNCaP (DMSZ, Braunschweig). Cells were seeded using the following conditions in 384 well plates (Corning) in 30 μl of growth media at 4000 cells/well for VCaP cells and 1000 cells/well for 22Rv1, C4-2 and LNCaP cells.
Cells were cultivated an incubator at 37° C. and 5% C02 over night. […] In sister plates cell viability at treatment start (d=0) was determined using CellTiter-Glo® assay (CTG, Promega, Madison, Wis., USA), by adding 30 μl per well CTG solution, incubation for 10 min and reading of Luminescence in a PheraStarFSX instrument (BMG Labtech). After a 5-day exposure in the presenced of test compounds, cell viability of treated or untreated control cells was determined again using CellTiter-Glo® assay (Promega, Madison, Wis., USA). […] The DRC software is a Biobook Spreadsheet that was developed by Bayer AG and Bayer Business Services on the IDBS E-Workbook Suite platform (IDBS: ID Business Solutions Ltd., Guildford, UK).

The subject of experiment [3] is LNCaP human prostate cancer cells. Kind of experiment: LNCaP xenograft efficacy study (T/C tumor area). Particulars: Example III; day 64 after start of therapy; single treatment 1.5 MBq/kg. The class given is in vivo, SCID mice. The method, boiled down: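 SCID mice with testosterone pellet bearing s.c. flank LNCaP xenografts (5×10^6 cells in Matrigel) were treated i.v. with a defined radioactive dose once tumors reached 35-50 mm^2 (n=10/group). Tumor area (caliper, longest diameter × perpendicular) measured 2-3× weekly; T/C ratio calculated from tumor areas when vehicle group closed.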

T1 sequence (Q04609 whole entry): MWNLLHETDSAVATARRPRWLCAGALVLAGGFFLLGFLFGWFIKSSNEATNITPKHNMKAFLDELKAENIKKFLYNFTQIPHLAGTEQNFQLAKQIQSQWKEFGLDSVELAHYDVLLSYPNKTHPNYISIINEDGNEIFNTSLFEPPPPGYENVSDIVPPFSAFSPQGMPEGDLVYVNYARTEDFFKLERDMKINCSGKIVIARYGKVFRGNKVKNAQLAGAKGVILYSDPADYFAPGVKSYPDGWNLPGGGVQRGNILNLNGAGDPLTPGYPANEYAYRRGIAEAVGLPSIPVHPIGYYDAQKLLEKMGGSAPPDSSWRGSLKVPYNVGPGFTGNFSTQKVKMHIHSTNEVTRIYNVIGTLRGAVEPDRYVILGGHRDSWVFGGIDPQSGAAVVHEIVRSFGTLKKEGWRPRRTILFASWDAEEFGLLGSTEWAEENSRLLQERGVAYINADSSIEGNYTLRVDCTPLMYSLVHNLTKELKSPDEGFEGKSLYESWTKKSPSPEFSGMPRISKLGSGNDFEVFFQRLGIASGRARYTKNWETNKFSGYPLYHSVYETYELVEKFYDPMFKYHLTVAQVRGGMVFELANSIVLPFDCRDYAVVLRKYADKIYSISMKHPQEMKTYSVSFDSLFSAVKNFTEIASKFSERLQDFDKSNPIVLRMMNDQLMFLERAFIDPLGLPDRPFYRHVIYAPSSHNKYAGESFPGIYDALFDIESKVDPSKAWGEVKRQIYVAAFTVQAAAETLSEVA

On to `Cc1cc(C(=O)NCCN(CCCN(CCNC(=O)c2cc(C)n(CC(=O)O)c(=O)c2O)CCNC(=O)c2cc(C)n(CC(=O)NC[C@H]3CC[C@H](C(=O)N[C@@H](Cc4ccc5ccccc5c4)C(=O)NCCCC[C@H](NC(=O)N[C@@H](CCC(=O)O)C(=O)O)C(=O)O)CC3)c(=O)c2O)CCNC(=O)c2cc(C)n(CC(=O)NC[C@H]3CC[C@H](C(=O)N[C@@H](Cc4ccc5ccccc5c4)C(=O)NCCCC[C@H](NC(=O)N[C@@H](CCC(=O)O)C(=O)O)C(=O)O)CC3)c(=O)c2O)c(O)c(=O)n1CC(=O)O` [1-C dimer, (3S,10S,14S,3'S,10'S,14'S)-1,1′-(propane-1,3-diylbis{[(2-{[1-(carboxymethyl)-3-hydroxy-6-methyl-2-oxo-1,2-dihydropyridine-4-carbonyl]amino}ethyl)azanediyl]ethane-2,1-diylcarbamoyl(3-hydroxy-6-methyl-2-oxopyridine-4,1(2H)-diyl)(1-oxoethane-2,1-diyl)azanediylmethylene(1r,4S)cyclohexane-4,1-diyl})bis{3-[(naphthalen-2-yl)methyl]-1,4,12-trioxo-2,5,11,13-tetraazahexadecane-10,14,16-tricarboxylic acid}], for which, in experiment [1], the “% remaining 3H-PSMA-617 @ 10 nM (mean)” value was found to be 39%, the “% remaining 3H-PSMA-617 @ 100 nM (mean)” value is listed as 5% and the “competition against 3H-PSMA-617 on PSMA-expressing LNCaP cells (in words)” value (“competition” for short) is reported as “improved competition”. In addition, in experiment [2], the “antiproliferative activity on VCap, C4-2, 22Rv1 and LnCap cells (in words)” value is recorded as “high antiproliferative activity”.
As to `Cc1cc(C(=O)NCCN(CCCN(CCNC(=O)c2cc(C)n(CC(=O)NC[C@H]3CC[C@H](C(=O)N[C@@H](Cc4ccc5ccccc5c4)C(=O)NCCCC[C@H](NC(=O)N[C@@H](CCC(=O)O)C(=O)O)C(=O)O)CC3)c(=O)c2O)CCNC(=O)c2cc(C)n(CC(=O)NC[C@H]3CC[C@H](C(=O)N[C@@H](Cc4ccc5ccccc5c4)C(=O)NCCCC[C@H](NC(=O)N[C@@H](CCC(=O)O)C(=O)O)C(=O)O)CC3)c(=O)c2O)CCNC(=O)c2cc(C)n(CC(=O)NC[C@H]3CC[C@H](C(=O)N[C@@H](Cc4ccc5ccccc5c4)C(=O)NCCCC[C@H](NC(=O)N[C@@H](CCC(=O)O)C(=O)O)C(=O)O)CC3)c(=O)c2O)c(O)c(=O)n1CC(=O)NC[C@H]1CC[C@H](C(=O)N[C@@H](Cc2ccc3ccccc3c2)C(=O)NCCCC[C@H](NC(=O)N[C@@H](CCC(=O)O)C(=O)O)C(=O)O)CC1` [1-C tetramer], in experiment [1], the remaining activity at 0.01 µM was 59%, the remaining activity at 0.1 µM is 7% and the “competition” value was “improved competition”. Further, in experiment [3], the T/Carea is listed as 0.36. Further, the “antiproliferative activity on VCap, C4-2, 22Rv1 and LnCap cells (in words)” value in experiment [2] is on record as “high antiproliferative activity”.
In the case of `Cc1cc(C(=O)NCCN(CCCN(CCNC(=O)c2cc(C)n(CC(=O)NC[C@H]3CC[C@H](C(=O)N[C@@H](Cc4ccc5ccccc5c4)C(=O)NCCCC[C@H](NC(=O)N[C@@H](CCC(=O)O)C(=O)O)C(=O)O)CC3)c(=O)c2O)CCNC(=O)c2cc(C)n(CC(=O)NC[C@H]3CC[C@H](C(=O)N[C@@H](Cc4ccc5ccccc5c4)C(=O)NCCCC[C@H](NC(=O)N[C@@H](CCC(=O)O)C(=O)O)C(=O)O)CC3)c(=O)c2O)CCNC(=O)c2cc(C)n(CC(=O)NC[C@H]3CC[C@H](C(=O)N[C@@H](Cc4ccc5ccccc5c4)C(=O)NCCCC[C@H](NC(=O)N[C@@H](CCC(=O)O)C(=O)O)C(=O)O)CC3)c(=O)c2O)c(O)c(=O)n1CC(=O)O` [1-C trimer], in experiment [1], the remaining activity at 0.01 µM was found to be 45%, the remaining activity at 0.1 µM worked out at 9% and the “competition” value is “improved competition”. For the same compound, in experiment [2], the “antiproliferative activity on VCap, C4-2, 22Rv1 and LnCap cells (in words)” value is listed as “high antiproliferative activity”.
In experiment [1], `Cc1cc(C(=O)NCCN(CCCN(CCNC(=O)c2cc(C)n(CC(=O)NCc3ccc(C(=O)N[C@@H](Cc4ccc5ccccc5n4)C(=O)NCCCC[C@H](NC(=O)N[C@@H](CCC(=O)O)C(=O)O)C(=O)O)nc3)c(=O)c2O)CCNC(=O)c2cc(C)n(CC(=O)NCc3ccc(C(=O)N[C@@H](Cc4ccc5ccccc5n4)C(=O)NCCCC[C@H](NC(=O)N[C@@H](CCC(=O)O)C(=O)O)C(=O)O)nc3)c(=O)c2O)CCNC(=O)c2cc(C)n(CC(=O)NCc3ccc(C(=O)N[C@@H](Cc4ccc5ccccc5n4)C(=O)NCCCC[C@H](NC(=O)N[C@@H](CCC(=O)O)C(=O)O)C(=O)O)nc3)c(=O)c2O)c(O)c(=O)n1CC(=O)NCc1ccc(C(=O)N[C@@H](Cc2ccc3ccccc3n2)C(=O)NCCCC[C@H](NC(=O)N[C@@H](CCC(=O)O)C(=O)O)C(=O)O)nc1` [34-C tetramer] came in with a remaining activity at 0.01 µM of 73% and a remaining activity at 0.1 µM of 14%. In addition, in experiment [2], the “antiproliferative activity on VCap, C4-2, 22Rv1 and LnCap cells (in words)” value is on record as “high antiproliferative activity”. For the same compound, the “antiproliferative activity on VCap and C4-2 cells (in words)” value in experiment [2] (227Th-labelled compounds, in comparison to 227Th-labelled examples 1-C monomer, dimer, trimer and tetramer) is listed as “improved antiproliferative activity”.
Consider `CNc1cc(CC(NC(=O)C2CCC(CNC(=O)Cn3c(C)cc(C(=O)NCCN(CCCN(CCNC(=O)c4cc(C)n(CC(=O)O)c(=O)c4O)CCNC(=O)c4cc(C)n(CC(=O)NCC5CCC(C(=O)NC(Cc6cc(NC)c7ccccc7c6)C(=O)NCCCCC(NC(=O)NC(CCC(=O)O)C(=O)O)C(=O)O)CC5)c(=O)c4O)CCNC(=O)c4cc(C)n(CC(=O)O)c(=O)c4O)c(O)c3=O)CC2)C(=O)NCCCCC(NC(=O)NC(CCC(=O)O)C(=O)O)C(=O)O)cc2ccccc12` (stereo not drawn) [37-C dimer], for which, in experiment [1], the “% remaining 3H-PSMA-617 @ 10 nM (mean)” value came to 64% and the “% remaining 3H-PSMA-617 @ 100 nM (mean)” value turned out to be 13%. Also, the “antiproliferative activity on VCap, C4-2, 22Rv1 and LnCap cells (in words)” value in experiment [2] is on record as “high antiproliferative activity”.
Consider `Cc1cc(C(=O)NCCN(CCCN(CCNC(=O)c2cc(C)n(CC(=O)O)c(=O)c2O)CCNC(=O)c2cc(C)n(CC(=O)NC[C@H]3CC[C@H](C(=O)N[C@@H](Cc4ccc5ccccc5c4)C(=O)NCCCC[C@H](NC(=O)N[C@@H](CCC(=O)O)C(=O)O)C(=O)O)CC3)c(=O)c2O)CCNC(=O)c2cc(C)n(CC(=O)O)c(=O)c2O)c(O)c(=O)n1CC(=O)O` [Example 1-C Monomer], for which, in experiment [1], the remaining activity at 0.01 µM came out at 32%, the remaining activity at 0.1 µM was 5% and the “competition” value is given as “improved competition”. Moreover, the “antiproliferative activity on VCap, C4-2, 22Rv1 and LnCap cells (in words)” value in experiment [2] is “high antiproliferative activity”.
Take `Cc1cc(C(=O)NCCN(CCCN(CCNC(=O)c2cc(C)n(CC(=O)O)c(=O)c2O)CCNC(=O)c2cc(C)n(CC(=O)NC[C@H]3CC[C@H](C(=O)N[C@@H](Cc4ccc5ccccc5n4)C(=O)NCCCC[C@H](NC(=O)N[C@@H](CCC(=O)O)C(=O)O)C(=O)O)CC3)c(=O)c2O)CCNC(=O)c2cc(C)n(CC(=O)O)c(=O)c2O)c(O)c(=O)n1CC(=O)O` [Example 17-C monomer]: in experiment [1], the remaining activity at 0.01 µM is 42% and the remaining activity at 0.1 µM was found to be 8%. The “antiproliferative activity on VCap, C4-2, 22Rv1 and LnCap cells (in words)” value in experiment [2] is given as “high antiproliferative activity”.
As for `Cc1cc(C(=O)NCCN(CCCN(CCNC(=O)c2cc(C)n(CC(=O)NC[C@H]3CC[C@H](C(=O)N[C@@H](Cc4cnc5ccccc5c4)C(=O)NCCCC[C@H](NC(=O)N[C@@H](CCC(=O)O)C(=O)O)C(=O)O)CC3)c(=O)c2O)CCNC(=O)c2cc(C)n(CC(=O)NC[C@H]3CC[C@H](C(=O)N[C@@H](Cc4cnc5ccccc5c4)C(=O)NCCCC[C@H](NC(=O)N[C@@H](CCC(=O)O)C(=O)O)C(=O)O)CC3)c(=O)c2O)CCNC(=O)c2cc(C)n(CC(=O)NC[C@H]3CC[C@H](C(=O)N[C@@H](Cc4cnc5ccccc5c4)C(=O)NCCCC[C@H](NC(=O)N[C@@H](CCC(=O)O)C(=O)O)C(=O)O)CC3)c(=O)c2O)c(O)c(=O)n1CC(=O)O` [Example 22-C trimer], in experiment [1], the “% remaining 3H-PSMA-617 @ 10 nM (mean)” value was determined as 33% and the “% remaining 3H-PSMA-617 @ 100 nM (mean)” value was determined as 5%. Besides, the “antiproliferative activity on VCap, C4-2, 22Rv1 and LnCap cells (in words)” value in experiment [2] is on record as “high antiproliferative activity”.

For the origin of these results see patent publication US20230072421A1, “TARGETED RADIOPHARMACEUTICALS FOR THE DIAGNOSIS AND TREATMENT OF PROSTATE CANCER” (Bayer AS, priority 2019, published 2023).
